According to ChEMBL document CHEMBL3045201, “Quantitative Structure-Activity Relationships of Fluazinam and Related Fungicidal N-phenylpyridinamines” (1996):
Active and inactive are the calls of the source. No cut-off for these calls is given here.

Legend:
[1] = system: Rhizoctonia solani; experiment: Fungicidal activity against Rhizoctonia solani infected in 24 hr compound pre-treated Oryza sativa cv. Chukyoasahi assessed as disease control measured after 10 days; format: functional
[2] = system: Podosphaera fuliginea; experiment: Fungicidal activity against Podosphaera fuliginea infected in 24 hr compound pre-treated cucumber plant assessed as disease control measured after 10 days; format: functional
[3] = system: Pyricularia oryzae; experiment: Fungicidal activity against Magnaporthe oryzae infected in 24 hr compound pre-treated Oryza sativa cv. Chukyoasahi assessed as disease control measured after 10 days; format: functional
[4] = system: Botrytis cinerea; experiment: Fungicidal activity against Botryotinia fuckeliana assessed as mitochondrial uncoupling activity; format: functional, organism-based
[5] = system: Pyricularia oryzae; experiment: Fungicidal activity against Magnaporthe oryzae assessed as mitochondrial uncoupling activity; format: functional, organism-based
[6] = system: Rhizoctonia solani; experiment: Fungicidal activity against Rhizoctonia solani assessed as SH-inhibition; format: functional, organism-based
[7] = system: Podosphaera fuliginea; experiment: Fungicidal activity against Podosphaera fuliginea assessed as SH-inhibition; format: functional, organism-based
[8] = system: Botrytis cinerea; experiment: Fungicidal activity against Botryotinia fuckeliana assessed as SH-inhibition; format: functional, organism-based
[9] = system: Pyricularia oryzae; experiment: Fungicidal activity against Magnaporthe oryzae assessed as SH-inhibition; format: functional, organism-based
[10] = species on record: Rattus norvegicus; experiment: Inhibition of mitochondrial uncoupling in Rattus norvegicus (rat); format: functional, organism-based
[11] = system: Rhizoctonia solani; experiment: Fungicidal activity against Rhizoctonia solani assessed as mitochondrial uncoupling activity; format: functional, organism-based
[12] = system: Podosphaera fuliginea; experiment: Fungicidal activity against Podosphaera fuliginea assessed as mitochondrial uncoupling activity; format: functional, organism-based

SMILES | I90 [1] | I90 [2] | I90 [3] | also measured
Nc1c(C(F)(F)F)cc([N+](=O)[O-])c(Nc2ncc(C(F)(F)F)cc2Cl)c1[N+](=O)[O-] | >500 ppm | >500 ppm | >500 ppm | 
CCCCOc1c(C(F)(F)F)cc([N+](=O)[O-])c(Nc2ncc(C(F)(F)F)cc2Cl)c1[N+](=O)[O-] | >500 ppm | >500 ppm | >500 ppm | 
CSc1c(C(F)(F)F)cc([N+](=O)[O-])c(Nc2ncc(C(F)(F)F)cc2Cl)c1[N+](=O)[O-] | 16 ppm | 16 ppm | <16 ppm | 
CCCOc1c(C(F)(F)F)cc([N+](=O)[O-])c(Nc2ncc(C(F)(F)F)cc2Cl)c1[N+](=O)[O-] | 16 ppm | >500 ppm | 63 ppm | 
C[S+]([O-])c1c(C(F)(F)F)cc([N+](=O)[O-])c(Nc2ncc(C(F)(F)F)cc2Cl)c1[N+](=O)[O-] (centres undefined) | >500 ppm | >500 ppm | 63 ppm | 
COc1c(C(F)(F)F)cc([N+](=O)[O-])c(Nc2ncc(C(F)(F)F)cc2Cl)c1[N+](=O)[O-] | 16 ppm | 63 ppm | <16 ppm | 
O=[N+]([O-])c1cc(C(F)(F)F)c(Br)c([N+](=O)[O-])c1Nc1ncc(C(F)(F)F)cc1Cl | 63 ppm | 63 ppm | 16 ppm | 
O=[N+]([O-])c1cc(C(F)(F)F)c(I)c([N+](=O)[O-])c1Nc1ncc(C(F)(F)F)cc1Cl | >500 ppm | >500 ppm | 16 ppm | 
CCOc1c(C(F)(F)F)cc([N+](=O)[O-])c(Nc2ncc(C(F)(F)F)cc2Cl)c1[N+](=O)[O-] | 16 ppm | 16 ppm | 16 ppm | 
O=[N+]([O-])c1cc(C(F)(F)F)c(OCC(F)(F)F)c([N+](=O)[O-])c1Nc1ncc(C(F)(F)F)cc1Cl | 63 ppm | 16 ppm | >500 ppm | 
O=[N+]([O-])c1cc(C(F)(F)F)c(Cl)c([N+](=O)[O-])c1Nc1ncc(C(F)(F)F)cc1Cl [FLUAZINAM] |  | 63 ppm | <16 ppm | Activity [4]: inactive; Activity [5]: Active; Activity [6]: Active; Activity [7]: inactive; Activity [8]: Active; Activity [9]: Active; Activity [10]: Active; Activity [11]: Active; Activity [12]: Active
CC(C)COc1c(C(F)(F)F)cc([N+](=O)[O-])c(Nc2ncc(C(F)(F)F)cc2Cl)c1[N+](=O)[O-] | 63 ppm | >500 ppm | >500 ppm | 
